Data published in patent US10689340B2, “Substituted indoline derivatives as dengue viral replication inhibitors” (priority 2016, dated 2020).

Legend:
DENV-2 16681 strain = experiment: DENV-2 antiviral assay (eGFP fluorescence); assay type: cell-based, Dengue virus; settings: DENV-2 16681 eGFP, Vero cells, MOI 0.5, 3 days
Protocol: The antiviral activity of all the compounds of the invention was tested against the DENV-2 16681 strain which was labeled with enhanced green fluorescent protein (eGPF). The culture medium consists of minimal essential medium supplemented with 2% of heat-inactivated fetal calf serum, 0.04% gentamycin (50 mg/mL) and 2 mM of L-glutamine. Vero cells, obtained from ECACC, were suspended in culture medium and 25 μL was added to 384-well plates (2500 cells/well), which already contain the antiviral compounds. Typically, these plates contain a 5-fold serial dilution of 9 dilution steps of the test compound at 200 times the final concentration in 100% DMSO (200 nL). […] Finally, each plate contains wells which are assigned as virus controls (containing cells and virus in the absence of compound), cell controls (containing cells in the absence of virus and compound) and medium controls (containing medium in the absence of cells, virus and compounds). To the wells assigned as medium control, 25 μL of culture medium was added instead of Vero cells. Once the cells were added to the plates, the plates were incubated for 30 minutes at room temperature to allow the cells to distribute evenly within the wells. Next, the plates were incubated in a fully humidified incubator (37° C., 5% CO2) until the next day. Then, DENV-2 strain 16681, labeled with eGFP, was added at a multiplicity of infection (MOI) of 0.5. Therefore, 15 μL of virus suspension was added to all the wells containing test compound and to the wells assigned as virus control. In parallel, 15 μL of culture medium was added to the medium and cell controls. Next, the plates were incubated for 3 days in a fully humidified incubator (37° C., 5% CO2). At the day of the read out, the eGFP fluorescence was measured using an automated fluorescence microscope at 488 nm (blue laser). Using an in-house LIMS system, inhibition dose response curves for each compound were calculated and the half maximal effective concentration (EC50) was determined. Therefore, the percent inhibition (I) for every test concentration is calculated using the following formula: I=100*(ST-SCC)/(SVC-SCC); ST, SCC and SVC are the amount of eGFP signal in the test compound, cell control and virus control wells, respectively. The EC50, represents the concentration of a compound at which the virus replication is inhibited with 50%, as measured by a 50% reduction of the eGFP fluorescent intensity compared to the virus control. The EC50 is calculated using linear interpolation (Table 1).

in vitro = settings: African green monkey
Vero cells = settings: African green monkey
[1] = Dengue virus, DENV2, Vero, 72 h

SMILES: COc1cc(NC(C(=O)N2CCc3cc(OC)c(OC(F)(F)F)cc32)c2ccc(Cl)cc2)cc(OCCCC(=O)O)c1 (single isomer, unassigned) [Compound 12A]
- EC50 (DENV-2 16681 strain): 380 nM
- CC50 (in vitro): 12000 nM

SMILES: COc1cc(NC(C(=O)N2CCc3ccc(OC(F)(F)F)cc32)c2ccc(Cl)cc2F)cc(OCCCC(=O)O)c1 (single isomer, unassigned) [Compound 10B]
- CC50 (Vero cells): 8800 nM
- EC50 (DENV-2 16681 strain): 5.5 nM

SMILES: COc1cc(NC(C(=O)N2CCc3ccc(C(F)(F)F)cc32)c2ccc(Cl)cc2F)cc(OCCCC(=O)O)c1 (racemic) [Compound 9, 4-(3-((1-(4-chloro-2-fluorophenyl)-2-oxo-2-(6-(trifluoromethyl)indolin-1-yl)ethyl)amino)-5-methoxy-phenoxy)butanoic acid]
- EC50 (DENV-2 16681 strain; [1]): 0.96 nM
- CC50 (in vitro): 11000 nM

SMILES: COc1cc(NC(C(=O)N2CCc3cc(OC)c(C(F)(F)F)cc32)c2ccc(Cl)cc2)cc(OCCCC(=O)O)c1 (single isomer, unassigned) [Compound 5A]
- EC50 (DENV-2 16681 strain): 19 nM
- CC50 (in vitro): 12000 nM

SMILES: COc1cc(NC(C(=O)N2CCc3ccc(C(F)(F)F)cc32)c2ccc(F)cc2)cc(OCCCC(=O)O)c1 (single isomer, unassigned) [Compound 1A]
- EC50 (DENV-2 16681 strain): 180 nM
- CC50 (in vitro): > 25000 nM

SMILES: COc1cc(NC(C(=O)N2CCc3ccc(OC(F)(F)F)cc32)c2ccc(Cl)cc2F)cc(OCCCC(=O)O)c1 (racemic) [Compound 10, 4-(3-((1-(4-chloro-2-fluorophenyl)-2-oxo-2-(6-(trifluoromethoxy)indolin-1-yl)ethyl)amino)-5-methoxy-phenoxy)butanoic acid]
- EC50 (DENV-2 16681 strain; [1]): 0.24 nM
- CC50 (in vitro): 10000 nM

SMILES: COc1cc(NC(C(=O)N2CCc3ccc(OC(F)(F)F)cc32)c2ccc(F)cc2)cc(OCCCC(=O)O)c1 (racemic) [Compound 2, 4-(3-((1-(4-fluorophenyl)-2-oxo-2-(6-(trifluoromethoxy)indolin-1-yl)ethyl)amino)-5-methoxyphenoxy)butanoic acid]
- EC50 (DENV-2 16681 strain; [1]): 0.55 nM
- CC50 (in vitro): 12000 nM

SMILES: COc1cc(NC(C(=O)N2CCc3ccc(C(F)(F)F)cc32)c2ccc(Cl)cc2)cc(OCCCC(=O)O)c1 (single isomer, unassigned) [Compound 3A]
- EC50 (DENV-2 16681 strain): 3.9 nM
- CC50 (in vitro): 11000 nM

SMILES: COc1cc(NC(C(=O)N2CCc3ccc(OC(F)(F)F)cc32)c2ccc(Cl)cc2)cc(OCCCC(=O)O)c1 (racemic) [Compound 4, 4-(3-((1-(4-chlorophenyl)-2-oxo-2-(6-(trifluoromethoxy)indolin-1-yl)ethyl)amino)-5-methoxyphenoxy)butanoic acid]
- EC50 (DENV-2 16681 strain; [1]): 0.15 nM
- CC50 (in vitro): 10000 nM

SMILES: COc1cc(NC(C(=O)N2CCc3ccc(C(F)(F)F)cc32)c2ccc(F)cc2)cc(OCCCC(=O)O)c1 (racemic) [Compound 1, 4-(3-((1-(4-fluorophenyl)-2-oxo-2-(6-(trifluoromethyl)-indolin-1-yl)ethyl)amino)-5-methoxyphenoxy)butanoic acid]
- EC50 (DENV-2 16681 strain; [1]): 2.1 nM
- CC50 (in vitro): > 25000 nM

SMILES: COc1cc(NC(C(=O)N2CCc3ccc(C(F)(F)F)cc32)c2ccc(Cl)cc2F)cc(OCCCC(=O)O)c1 (single isomer, unassigned) [Compound 9A]
- EC50 (DENV-2 16681 strain): 31 nM
- CC50 (in vitro): 12000 nM

SMILES: COc1cc(NC(C(=O)N2CCc3ccc(C(F)(F)F)cc32)c2ccc(Cl)cc2OC)cc(OCCCC(=O)O)c1 (racemic) [Compound 6, 4-(3-((1-(4-chloro-2-methoxyphenyl)-2-oxo-2-(6-(trifluoro-methyl)indolin-1-yl)ethyl)amino)-5-methoxyphenoxy)butanoic acid]
- EC50 (DENV-2 16681 strain; [1]): 0.31 nM
- CC50 (in vitro): 12000 nM

SMILES: COc1cc(NC(C(=O)N2CCc3ccc(OC(F)(F)F)cc32)c2ccc(Cl)cc2OC)cc(OCCCC(=O)O)c1 (racemic) [Compound 8, 4-(3-((1-(4-chloro-2-methoxyphenyl)-2-oxo-2-(6-(trifluoro-methoxy)indolin-1-yl)ethyl)amino)-5-methoxyphenoxy)butanoic acid]
- EC50 (DENV-2 16681 strain; [1]): 0.13 nM
- CC50 (in vitro): 12000 nM

SMILES: COc1cc(NC(C(=O)N2CCc3ccc(OC(F)(F)F)cc32)c2ccc(F)cc2)cc(OCCCC(=O)O)c1 (single isomer, unassigned) [Compound 2A]
- EC50 (DENV-2 16681 strain): 56 nM
- CC50 (in vitro): 14000 nM

SMILES: COc1cc(NC(C(=O)N2CCc3ccc(C(F)(F)F)cc32)c2ccc(Cl)cc2OC)cc(OCCCC(=O)O)c1 (single isomer, unassigned) [Compound 6A]
- EC50 (DENV-2 16681 strain): 23 nM
- CC50 (in vitro): 12000 nM

SMILES: COc1cc(NC(C(=O)N2CCc3ccc(OC(F)(F)F)cc32)c2ccc(Cl)cc2OC)cc(OCCCC(=O)O)c1 (single isomer, unassigned) [Compound 8A]
- EC50 (DENV-2 16681 strain): 280 nM
- CC50 (in vitro): 12000 nM

SMILES: COc1cc(NC(C(=O)N2CCc3cc(OC)c(C(F)(F)F)cc32)c2ccc(Cl)cc2OC)cc(OCCCC(=O)O)c1 (single isomer, unassigned) [Compound 7A]
- EC50 (DENV-2 16681 strain): 24 nM
- CC50 (in vitro): 12000 nM

SMILES: COc1cc(NC(C(=O)N2CCc3cc(OC)c(C(F)(F)F)cc32)c2ccc(Cl)cc2OC)cc(OCCCC(=O)O)c1 (racemic) [Compound 7, 4-(3-((1-(4-chloro-2-methoxyphenyl)-2-(5-methoxy-6-(trifluoromethyl)indolin-1-yl)-2-oxoethyl)amino)-5-methoxyphenoxy)butanoic acid]
- EC50 (DENV-2 16681 strain; [1]): 0.47 nM
- CC50 (in vitro): 12000 nM

SMILES: COc1cc(NC(C(=O)N2CCc3cc(OC)c(OC(F)(F)F)cc32)c2ccc(Cl)cc2)cc(OCCCC(=O)O)c1 (racemic) [Compound 12, 4-(3-((1-(4-chlorophenyl)-2-(5-methoxy-6-(trifluoro-methoxy)indolin-1-yl)-2-oxoethyl)amino)-5-methoxyphenoxy)butanoic acid]
- EC50 (DENV-2 16681 strain; [1]): 0.73 nM
- CC50 (in vitro): 12000 nM

SMILES: COc1cc(NC(C(=O)N2CCc3cc(OC)c(C(F)(F)F)cc32)c2ccc(Cl)cc2)cc(OCCCC(=O)O)c1 (racemic) [Compound 5, 4-(3-((1-(4-chlorophenyl)-2-(5-methoxy-6-(trifluoromethyl)indolin-1-yl)-2-oxoethyl)amino)-5-methoxyphenoxy)butanoic Acid]
- EC50 (DENV-2 16681 strain; [1]): 0.62 nM
- CC50 (in vitro): 13000 nM

SMILES: COc1cc(NC(C(=O)N2CCc3ccc(OC(F)(F)F)cc32)c2ccc(Cl)cc2)cc(OCCCC(=O)O)c1 (single isomer, unassigned) [Compound 4A]
- EC50 (DENV-2 16681 strain): 31 nM
- CC50 (in vitro): 10000 nM

SMILES: COc1cc(NC(C(=O)N2CCc3cc(OC)c(C(F)(F)F)cc32)c2ccc(Cl)cc2F)cc(OCCCC(=O)O)c1 (single isomer, unassigned) [Compound 11A]
- EC50 (DENV-2 16681 strain): 15 nM
- CC50 (in vitro): 12000 nM

SMILES: COc1cc(NC(C(=O)N2CCc3cc(OC)c(C(F)(F)F)cc32)c2ccc(Cl)cc2F)cc(OCCCC(=O)O)c1 (racemic) [Compound 11, 4-(3-((1-(4-chloro-2-fluorophenyl)-2-(5-methoxy-6-(trifluoromethyl)indolin-1-yl)-2-oxoethyl)amino)-5-methoxyphenoxy)butanoic acid]
- EC50 (DENV-2 16681 strain; [1]): 0.66 nM
- CC50 (in vitro): 11000 nM
